Laboratory results published in patent publication US20150359854A1 (HUMAN MATRIX SCIENCES, LLC, priority 2012, published 2015).
Entries after “also recorded” stand apart in the source; their conditions may differ.

Experiments:
[1] = system: cultures derived from aortic adventitia, primarily fibroblasts; experiment: Elastic fiber deposition in cultures derived from aortic adventitia; type: cell-based, human
[2] = molecular target: Insulin-Like Growth Factor-1 Receptor (IGFR-1R) (Homo sapiens, UniProt P08069); conditions: cited from earlier work
[3] = system: human aortic SMCs (AoSMCs); experiment: Quantitative assay of [3H]-valine-labeled insoluble elastin; type: cell-based; conditions: 24-hour treatment, 0.5 to 100 nmol/L insulin
Method: Cells were plated in 35-mm dishes at a density of 100,000 cells per dish and were grown to confluency. Two microcuries [3H]-valine per milliliter fresh medium supplemented with 2% FBS was added 2 hours before the indicated treatments. At the end of each experiment, the conditioned medium was collected and subjected to immunoprecipitation using anti-tropoelastin antibody. The cell layers were washed with PBS and incubated using radioimmunoprecipitation lysis buffer for 10 minutes on ice. After centrifugation, the supernatants were collected and subjected to immunoprecipitation using anti-tropoelastin antibody. The remaining pellets containing extracellular matrix were scraped and boiled in 500 μL 0.1 N NaOH for 30 minutes to solubilize all matrix components except the cross-linked elastin. Final results (counts per minute) reflecting the total amount of [3H]-valine-labeled insoluble elastin in individual cultures were normalized per their DNA contents (assessed using the Qiagen DNEASY® (DNA isolation) Tissue Kit) and expressed as percentage of control values.

S-Gal/EBP = experiment: Association of tropoelastin with S-Gal/EBP chaperone (Western blot, co-immunoprecipitation, double immunostaining); type: cell-based, human; conditions: 20 minutes, 10 nmol/L insulin
Method: Cultures fixed for 30 minutes in cold 100% methanol were then blocked with 1% glycine for 15 minutes, followed by 2% bovine serum albumin with 0.1% Triton X-100 for another hour at room temperature. They were finally exposed for 1 hour to the mixture of 5 μg/mL polyclonal anti-S-Gal/EBP and 5 μg/mL monoclonal anti-tropoelastin antibodies. All cultures were then incubated for another hour with the mixture of fluorescein-conjugated and rhodamine-conjugated secondary antibodies. Nuclei were counterstained with DAPI. At the end of all treatments, cells from quadruplicate cultures in each experimental group were lysed using NP40 cell lysis buffer (Invitrogen Corp.). Thirty micrograms of protein extracts from each sample was suspended in standard sample buffer, resolved on 4% to 12% gradient SDS-PAGE gels, transferred to nitrocellulose membranes, and subjected to Western blotting using antibodies. At the end of indicated treatments, the cultured cells were lysed as described, and 300 μL aliquots of cell extracts containing […] were incubated at 4° C. for 3 hours with the aliquots of protein G bound DYNABEADS® (Invitrogen Corp.) that were conjugated with either rabbit polyclonal anti-tropoelastin, goat polyclonal anti-Glut10, or rabbit polyclonal anti-S-Gal antibodies. The beads carrying the final immunoprecipitation products were then washed with PBS, resuspended in sample buffer, and boiled for 5 minutes. The released proteins were then resolved on SDS-PAGE gel and subjected to Western blotting using indicated antibodies.

tropoelastin mRNA = experiment: RT-PCR assay of tropoelastin mRNA; type: cell-based, human; conditions: 10 nmol/L insulin
Method: At the end of the treatments, total RNA was extracted from quadruplicate cultures in each experimental group using the RNEASY® (RNA isolation) Mini Kit. One microgram total RNA from each sample was added to one-step RT-PCR (One-Step RT-PCR Kit; Qiagen, Inc.). The reactions were set up in a total volume of 25 μL. The reverse transcription step was performed for elastin and 18S ribosomal RNA reactions at 50° C. for 30 minutes, followed by 15 minutes at 95° C. The elastin PCR reaction using sense primer 5′[…]-3′ (SEQ ID NO 1) and antisense primer 5′[…]3′ (SEQ ID NO 2). The products were analyzed using ethidium bromide staining and densitometry-based image analysis using an optical system (Gel Doc 1000; Bio-Rad Laboratories, Inc., Hercules, Calif.). The amount of tropoelastin mRNA was standardized relative to the amount of 18S ribosomal RNA and expressed as percentage of control values.

FoxO1 = FoxO1 binding to elastin gene promoter DNA probe (FRE) on DYNABEADS; type: cell-based, human
Method: Cells were then scraped, and their nuclear extracts were pre-pared using an isolation kit (Active Motif, Inc.). […] The equal molar amounts of both single-stranded DNA oligonucleotides were annealed in Tris-EDTA buffer (10 mmol/L Tris-HCl, 1 mmol/L EDTA (pH 8.0)) to form the double-stranded DNA probe. […] All preparations were subsequently incubated for 2 hours in 200 μL binding buffer (50 mmol/L KCl, 10% glycerol, 20 mmol/L HEPES (pH 7.9), 1 mmol/L MgCl2, 1 mmol/L DTT, 0.1 μg poly(DI-DC) (polydeoxyinosinic-deoxycytidylic), and proteinase inhibitors). After binding, the beads were washed four times in the same binding buffer, without poly(DI-DC). The bound proteins were resolved using 8% SDS-PAGE and probed using Western blotting with the anti-FoxO1 monoclonal antibody.

cdk-2 = experiment: Western blotting of cdk-2 phosphorylation; type: cell-based, human; conditions: 30-minute treatment, 10 nmol/L insulin
Text: At the end of all treatments, cells from quadruplicate cultures in each experimental group were lysed using NP40 cell lysis buffer (Invitrogen Corp.). Thirty micrograms of protein extracts from each sample was suspended in standard sample buffer, resolved on 4% to 12% gradient SDS-PAGE gels, transferred to nitrocellulose membranes, and subjected to Western blotting using antibodies.

Substance: insulin
- deposition of new elastic fibers in aortic adventitia cultures ([1]; 1 nmol/L insulin, primarily fibroblasts): stimulated deposition of new elastic fibers
- deposition of immunodetected elastic fibers in aortic media and adventitia cultures ([1]; 48-hour treatment with 10 nmol/L insulin): deposit multiple immunodetected elastic fibers
- lower affinity of IGFR-1R for insulin compared to the insulin receptor [2]: 1000 ×
- levels of metabolically labeled insoluble elastin [3]: up-regulated
- S-Gal/EBP coimmunoprecipitated using anti-tropoelastin antibody vs untreated (S-Gal/EBP): significantly more
- basic levels of intracellular S-Gal/EBP or tropoelastin (Western blot) (S-Gal/EBP): did not demonstrate any increase; also recorded: do not demonstrate any increase
- co-localization of tropoelastin and S-Gal/EBP (double immunostaining) (S-Gal/EBP): reveal co-localization
- time of peak up-regulation of tropoelastin mRNA (tropoelastin mRNA): 8 h
- tropoelastin mRNA level (tropoelastin mRNA; in 4 hours (time course)): significant up-regulation
- tropoelastin mRNA level (tropoelastin mRNA; 8-hour treatment, serum-free): induced significant up-regulation
- binding of FoxO1 from nuclear extracts to elastin promoter FRE DNA probe (FoxO1; AoSMCs treated 30 minutes with 10 nmol/L insulin, or preincubated with LY294002): could not sequester FoxO1; also recorded: could not bind FoxO1
- reversal by insulin of FoxO1 binding to the probe in LY294002-treated cells (FoxO1; LY294002 preincubation, consecutive insulin): could not reverse this interaction
- phosphorylation of cdk-2 on tyrosine 160 (cdk-2): did not induce phosphorylation
